{"source": "patent US20030013643A1", "about": "“Prevention and treatment of streptococcal and staphylococcal infection” (priority 2000, published 2003)", "system": "Group A Streptococcus (GAS, strain 950771)", "experiment": "Bacterial binding to human keratinocyte monolayers, GAS", "assay_type": "cell-based", "settings": "1 mg/ml pre-incubation; multiplicity of infection 10; 1 hour", "procedure": "Keratinocyte monolayers were prepared as descibed above in Methods section and pre-incubated with 1 mg/ml alginate (AL, solid bars) or 1 mg/ml hyaluronic acid (HA, hatched bars) prior to surface inoculation (as described above in Methods) with either Group A Streptococcus (GAS, strain 950771), Group B Streptococcus (GBS, strain 515), Streptococcus pneumoniae (S. pneumo, type 6), or Staphylococcus aureus (S. aureus, type 8) at a multiplicity of infection of 10 bacteria per keratinocyte for 1 hour.", "data": [{"substance": "hyaluronic acid", "values": [{"measurement": "inhibition of binding", "value": "more than 80%"}]}]}
